Where “and” joins values, the source holds several entries; their conditions need not be identical. Equal entries are not always repeated.
Experiments:
Type in all cases: in vivo, human
Conditions in all cases: individual patient
[1] = Plasma pharmacokinetics of high-dose intermittent sunitinib (LC-MS-MS, NONMEM)
Protocol: Study pharmacokinetic assessment in plasma: Ethylenediaminetetraacetic acid (EDTA) blood was collected pretreatment and subsequently at multiple time points in all patients (0, 2, 4, 6, 8, 10, and 24 h post-dose on day 1 for both time schedules and thereafter at days 3, 8, 10, 15, 17, and 22 for the once weekly schedule and at days 3, 15, 17, and 29 for the once every 2 weeks schedule). All samples were centrifuged within 1 h after collection at 2000 g for 10 min (at 4 degrees Celsius (°C)), plasma was separated and stored at −80 °C until the day of analysis.
Since there is no evidence for the exact relationship between plasma and tumor concentrations, we chose to use the concentration–time data calculated by NONMEM for Cmax, the average concentration over time (Caverage) and the trough concentrations just before the next dose was administered (Ctrough) based on rich PK-data of each individual patient. […] Inter-occasion variability in bioavailability and absorption duration were allowed in the model. The control stream of the final model and the goodness-of-fit plots are supplied in the Supplementary Material (Supplementary Data S3). The developed model was used to derive the individual predictions for the Cmax, Caverage, and Ctrough. SUM concentrations were calculated.
(§1) Supplementary data S2 – Methods (Details)
(§2) samples; using a validated liquid chromatography–tandem mass spectrometry (LC-MS-MS).
(§3) The system consisted of an Acquity H‐Class UPLC system, coupled to a Xevo TQ‐S micro
(§4) tandem mass spectrometer. […]

[2] = Skin drug concentration in skin biopsy at day 17 (LC-MS-MS)
Protocol: (§5) All tissue samples were immediately snap frozen (within 1 min) in liquid nitrogen and cryopreserved at −80 °C until the day of analysis.
(§6) Tissue biopsies were weighed accurately before analysis. Tissue homogenate was prepared by using a mechanical homogenizer. The tumor tissue was homogenized with the precellys lysing kit (bertin instruments®) in the Roche MagNA lyzer®. […] Tissue homogenate samples were directly analyzed.
as §1, §2, §3, §4

[3] = Tumor drug concentration in tumor needle biopsy at day 17 (LC-MS-MS)
Protocol: as §5, §6, §1, §2, §3, §4

CCNCCNC(=O)c1c(C)[nH]c(/C=C2\C(=O)Nc3ccc(F)cc32)c1C [N-desethyl sunitinib]
Cmax plasma - N-desethyl Sunitinib concentration ([1]; sunitinib 200 mg O1W): 68 ng/mL and 40 ng/mL and 58 ng/mL | Cmax plasma - N-desethyl Sunitinib concentration ([1]; sunitinib 300 mg O1W): 29 ng/mL and 34 ng/mL and 28 ng/mL and 22 ng/mL and 51 ng/mL and 15 ng/mL and 94 ng/mL and 32 ng/mL and 21 ng/mL and 31 ng/mL and 33 ng/mL and 23 ng/mL and 27 ng/mL and 43 ng/mL and 210 ng/mL and 63 ng/mL and 14 ng/mL | Cmax plasma - N-desethyl Sunitinib concentration ([1]; sunitinib 300 mg O2W): 29 ng/mL and 7.49 ng/mL and 27 ng/mL | Cmax plasma - N-desethyl Sunitinib concentration ([1]; sunitinib 400 mg O1W): 15 ng/mL and 26 ng/mL and 9.48 ng/mL and 22 ng/mL and 28 ng/mL and 25 ng/mL and 6.66 ng/mL and 44 ng/mL and 154 ng/mL and 57 ng/mL | Cmax plasma - N-desethyl Sunitinib concentration ([1]; sunitinib 400 mg O2W): 33 ng/mL and 31 ng/mL and 28 ng/mL and 34 ng/mL | Cmax plasma - N-desethyl Sunitinib concentration ([1]; sunitinib 500 mg O2W): 32 ng/mL and 29 ng/mL and 51 ng/mL | Cmax plasma - N-desethyl Sunitinib concentration ([1]; sunitinib 600 mg O2W): 45 ng/mL and 41 ng/mL | Cmax plasma - N-desethyl Sunitinib concentration ([1]; sunitinib 700 mg O2W): 26 ng/mL and 52 ng/mL and 24 ng/mL and 65 ng/mL and 55 ng/mL and 51 ng/mL and 21 ng/mL and 30 ng/mL and 40 ng/mL and 59 ng/mL and 35 ng/mL and 48 ng/mL and 36 ng/mL and 34 ng/mL and 23 ng/mL and 84 ng/mL and 164 ng/mL and 150 ng/mL and 85 ng/mL and 68 ng/mL and 54 ng/mL and 76 ng/mL and 125 ng/mL and 128 ng/mL and 200 ng/mL and 57 ng/mL | Cmax plasma - N-desethyl Sunitinib concentration ([1]; sunitinib 800 mg O2W): 55 ng/mL and 84 ng/mL and 13 ng/mL and 14 ng/mL and 29 ng/mL | Skin - N-desethyl Sunitinib concentration ([2]; sunitinib 300 mg O1W): 1288 µg/L and 1388 µg/L and 267 µg/L and 1355 µg/L and 529 µg/L and 224 µg/L and 648 µg/L and 865 µg/L and 1498 µg/L and 621 µg/L and 1842 µg/L and 2193 µg/L and 488 µg/L | Skin - N-desethyl Sunitinib concentration ([2]; sunitinib 300 mg O2W): 124 µg/L and 218 µg/L | Skin - N-desethyl Sunitinib concentration ([2]; sunitinib 400 mg O1W): 406 µg/L | Skin - N-desethyl Sunitinib concentration ([2]; sunitinib 700 mg O2W): 2743 µg/L and 221 µg/L and 168 µg/L and 987 µg/L and 5179 µg/L and 572 µg/L and 425 µg/L and 429 µg/L and 380 µg/L and 326 µg/L and 5652 µg/L and 1279 µg/L and 460 µg/L and 1021 µg/L and 1060 µg/L and 896 µg/L | Skin - N-desethyl Sunitinib concentration ([2]; sunitinib 800 mg O2W): 194 µg/L | Tumor - N-desethyl Sunitinib concentration ([3]; sunitinib 300 mg O1W): 589 µg/L and 12025 µg/L and 812 µg/L and 1101 µg/L and 1077 µg/L and 2934 µg/L and 6513 µg/L and 22945 µg/L and 578 µg/L and 10356 µg/L and 342 µg/L and 767 µg/L | Tumor - N-desethyl Sunitinib concentration ([3]; sunitinib 400 mg O2W): 400 µg/L | Tumor - N-desethyl Sunitinib concentration ([3]; sunitinib 700 mg O2W): 13436 µg/L and 2500 µg/L and 19730 µg/L and 2387 µg/L and 4534 µg/L and 1675 µg/L and 17843 µg/L and 555 µg/L | Tumor - N-desethyl Sunitinib concentration ([3]; sunitinib 800 mg O2W): 330 µg/L
